pIC50: −log10 of the molar value. Where two headings read alike, the source gives them in different places.
Key:
MRP3 = MRP3 (Homo sapiens, UniProt O15438); assay: Transporter inhibition assay, MRP3
OCT2 = molecular target: T1, OCT2 (Homo sapiens, UniProt O15244); assay: Transporter inhibition assay, OCT2
T1 sequence (O15244 1-555): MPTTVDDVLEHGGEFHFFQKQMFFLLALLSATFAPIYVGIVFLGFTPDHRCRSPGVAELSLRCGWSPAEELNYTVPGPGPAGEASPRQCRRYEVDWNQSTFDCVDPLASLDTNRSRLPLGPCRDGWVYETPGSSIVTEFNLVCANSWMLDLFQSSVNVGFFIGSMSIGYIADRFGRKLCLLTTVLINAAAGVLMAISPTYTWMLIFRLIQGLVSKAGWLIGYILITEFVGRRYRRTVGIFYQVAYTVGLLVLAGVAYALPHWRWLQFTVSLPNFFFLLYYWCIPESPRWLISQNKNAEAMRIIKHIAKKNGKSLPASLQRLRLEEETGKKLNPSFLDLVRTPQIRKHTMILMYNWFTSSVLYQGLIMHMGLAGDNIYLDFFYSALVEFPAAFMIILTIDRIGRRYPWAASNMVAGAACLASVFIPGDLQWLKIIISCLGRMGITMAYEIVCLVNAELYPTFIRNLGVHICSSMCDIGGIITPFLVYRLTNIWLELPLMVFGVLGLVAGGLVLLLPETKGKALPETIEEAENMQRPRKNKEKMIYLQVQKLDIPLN

BCRP = molecular target: T2, BCRP (Homo sapiens, UniProt Q9UNQ0); assay: Vesicular transport inhibition assay, BCRP
T2 sequence (Q9UNQ0 1-655): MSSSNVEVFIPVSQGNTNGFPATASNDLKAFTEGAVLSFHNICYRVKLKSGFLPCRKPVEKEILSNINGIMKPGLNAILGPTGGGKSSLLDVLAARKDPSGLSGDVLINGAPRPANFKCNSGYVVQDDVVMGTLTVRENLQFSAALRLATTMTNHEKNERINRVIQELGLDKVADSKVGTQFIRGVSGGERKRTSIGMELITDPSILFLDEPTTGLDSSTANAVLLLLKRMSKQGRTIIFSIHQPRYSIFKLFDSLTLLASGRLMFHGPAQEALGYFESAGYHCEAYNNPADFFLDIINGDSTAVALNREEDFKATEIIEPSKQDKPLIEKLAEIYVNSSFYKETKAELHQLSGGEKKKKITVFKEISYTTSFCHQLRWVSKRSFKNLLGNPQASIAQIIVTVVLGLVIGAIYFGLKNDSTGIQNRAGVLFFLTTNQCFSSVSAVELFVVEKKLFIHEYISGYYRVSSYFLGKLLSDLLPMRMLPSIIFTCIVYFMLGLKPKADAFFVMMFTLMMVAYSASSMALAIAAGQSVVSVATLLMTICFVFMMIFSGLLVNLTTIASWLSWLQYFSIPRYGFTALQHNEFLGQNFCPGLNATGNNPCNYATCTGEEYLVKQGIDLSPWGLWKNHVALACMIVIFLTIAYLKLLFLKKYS

MRP2 = MRP2 (Homo sapiens, UniProt Q92887); assay: Transporter inhibition assay, MRP2
OCT1 = molecular target: T3, OCT1 (Homo sapiens, UniProt O15245); assay: Transporter inhibition assay, OCT1
T3 sequence (O15245 1-554): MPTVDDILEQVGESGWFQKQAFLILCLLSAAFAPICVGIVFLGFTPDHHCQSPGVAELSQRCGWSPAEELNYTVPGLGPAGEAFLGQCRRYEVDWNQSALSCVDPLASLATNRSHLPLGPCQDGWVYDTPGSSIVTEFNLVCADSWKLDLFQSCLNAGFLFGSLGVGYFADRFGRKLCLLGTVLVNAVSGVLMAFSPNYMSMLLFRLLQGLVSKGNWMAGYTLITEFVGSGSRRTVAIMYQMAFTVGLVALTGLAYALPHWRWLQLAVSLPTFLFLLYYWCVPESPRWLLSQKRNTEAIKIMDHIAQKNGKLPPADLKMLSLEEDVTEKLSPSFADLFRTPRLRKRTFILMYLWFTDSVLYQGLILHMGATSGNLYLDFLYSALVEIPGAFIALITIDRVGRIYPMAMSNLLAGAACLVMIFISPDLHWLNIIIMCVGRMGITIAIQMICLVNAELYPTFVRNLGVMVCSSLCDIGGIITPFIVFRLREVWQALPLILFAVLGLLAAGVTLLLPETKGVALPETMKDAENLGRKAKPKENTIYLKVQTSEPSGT

OAT3 = molecular target: T4, OAT3 (Homo sapiens, UniProt Q8TCC7); assay: Transporter inhibition assay, OAT3
T4 sequence (Q8TCC7 1-542): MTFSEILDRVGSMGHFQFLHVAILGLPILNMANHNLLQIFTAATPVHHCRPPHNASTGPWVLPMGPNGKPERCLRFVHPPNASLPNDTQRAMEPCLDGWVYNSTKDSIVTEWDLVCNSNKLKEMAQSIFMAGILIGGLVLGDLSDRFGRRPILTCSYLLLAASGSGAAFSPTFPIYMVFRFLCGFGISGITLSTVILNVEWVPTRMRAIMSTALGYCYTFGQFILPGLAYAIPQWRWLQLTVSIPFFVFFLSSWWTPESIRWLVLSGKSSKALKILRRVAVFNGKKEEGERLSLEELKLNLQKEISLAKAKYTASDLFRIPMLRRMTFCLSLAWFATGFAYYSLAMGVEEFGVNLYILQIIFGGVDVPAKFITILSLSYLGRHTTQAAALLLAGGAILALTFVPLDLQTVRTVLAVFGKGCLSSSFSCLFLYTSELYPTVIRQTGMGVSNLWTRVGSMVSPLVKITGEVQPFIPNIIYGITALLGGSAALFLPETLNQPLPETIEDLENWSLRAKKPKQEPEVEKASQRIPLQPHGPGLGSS

Sequence of MRP3 (O15438 whole entry): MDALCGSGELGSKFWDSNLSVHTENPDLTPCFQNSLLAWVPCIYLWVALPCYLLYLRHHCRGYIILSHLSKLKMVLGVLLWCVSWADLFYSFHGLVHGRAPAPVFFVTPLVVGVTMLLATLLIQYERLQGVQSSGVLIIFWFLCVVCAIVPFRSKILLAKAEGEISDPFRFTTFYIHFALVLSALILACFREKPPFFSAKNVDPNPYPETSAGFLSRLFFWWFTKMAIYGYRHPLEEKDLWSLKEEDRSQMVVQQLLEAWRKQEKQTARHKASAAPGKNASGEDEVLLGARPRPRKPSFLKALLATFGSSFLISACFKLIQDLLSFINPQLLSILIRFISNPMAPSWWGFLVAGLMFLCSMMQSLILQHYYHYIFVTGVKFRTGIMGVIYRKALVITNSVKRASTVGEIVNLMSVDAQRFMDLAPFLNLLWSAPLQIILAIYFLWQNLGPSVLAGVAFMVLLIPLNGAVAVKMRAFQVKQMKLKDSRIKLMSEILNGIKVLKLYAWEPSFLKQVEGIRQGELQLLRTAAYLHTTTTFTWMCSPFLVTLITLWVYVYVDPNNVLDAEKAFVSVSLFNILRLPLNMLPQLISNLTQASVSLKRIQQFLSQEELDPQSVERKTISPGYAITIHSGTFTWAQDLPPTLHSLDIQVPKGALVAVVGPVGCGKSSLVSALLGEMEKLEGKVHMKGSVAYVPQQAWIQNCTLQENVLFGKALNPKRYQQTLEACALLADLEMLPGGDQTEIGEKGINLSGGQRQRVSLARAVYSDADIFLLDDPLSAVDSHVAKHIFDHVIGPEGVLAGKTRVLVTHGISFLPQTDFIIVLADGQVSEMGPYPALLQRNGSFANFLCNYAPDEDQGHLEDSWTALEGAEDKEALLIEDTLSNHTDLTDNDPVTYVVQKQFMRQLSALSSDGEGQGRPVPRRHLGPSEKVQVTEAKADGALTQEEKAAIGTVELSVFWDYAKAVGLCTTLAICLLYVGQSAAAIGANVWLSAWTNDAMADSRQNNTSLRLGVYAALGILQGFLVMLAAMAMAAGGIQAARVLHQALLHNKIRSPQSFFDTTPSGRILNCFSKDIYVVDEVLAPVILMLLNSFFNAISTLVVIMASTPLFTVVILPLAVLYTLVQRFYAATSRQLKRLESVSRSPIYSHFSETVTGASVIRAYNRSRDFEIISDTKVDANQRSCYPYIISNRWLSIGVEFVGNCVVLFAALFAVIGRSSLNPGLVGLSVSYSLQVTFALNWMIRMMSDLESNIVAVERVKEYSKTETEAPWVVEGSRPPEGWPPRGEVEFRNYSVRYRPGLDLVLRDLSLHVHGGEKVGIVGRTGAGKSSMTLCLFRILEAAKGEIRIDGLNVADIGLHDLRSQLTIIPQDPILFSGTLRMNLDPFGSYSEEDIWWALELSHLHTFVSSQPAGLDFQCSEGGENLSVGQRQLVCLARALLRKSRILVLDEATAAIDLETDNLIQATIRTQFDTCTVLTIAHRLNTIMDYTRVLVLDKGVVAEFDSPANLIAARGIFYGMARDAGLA
Sequence of MRP2 (Q92887 whole entry): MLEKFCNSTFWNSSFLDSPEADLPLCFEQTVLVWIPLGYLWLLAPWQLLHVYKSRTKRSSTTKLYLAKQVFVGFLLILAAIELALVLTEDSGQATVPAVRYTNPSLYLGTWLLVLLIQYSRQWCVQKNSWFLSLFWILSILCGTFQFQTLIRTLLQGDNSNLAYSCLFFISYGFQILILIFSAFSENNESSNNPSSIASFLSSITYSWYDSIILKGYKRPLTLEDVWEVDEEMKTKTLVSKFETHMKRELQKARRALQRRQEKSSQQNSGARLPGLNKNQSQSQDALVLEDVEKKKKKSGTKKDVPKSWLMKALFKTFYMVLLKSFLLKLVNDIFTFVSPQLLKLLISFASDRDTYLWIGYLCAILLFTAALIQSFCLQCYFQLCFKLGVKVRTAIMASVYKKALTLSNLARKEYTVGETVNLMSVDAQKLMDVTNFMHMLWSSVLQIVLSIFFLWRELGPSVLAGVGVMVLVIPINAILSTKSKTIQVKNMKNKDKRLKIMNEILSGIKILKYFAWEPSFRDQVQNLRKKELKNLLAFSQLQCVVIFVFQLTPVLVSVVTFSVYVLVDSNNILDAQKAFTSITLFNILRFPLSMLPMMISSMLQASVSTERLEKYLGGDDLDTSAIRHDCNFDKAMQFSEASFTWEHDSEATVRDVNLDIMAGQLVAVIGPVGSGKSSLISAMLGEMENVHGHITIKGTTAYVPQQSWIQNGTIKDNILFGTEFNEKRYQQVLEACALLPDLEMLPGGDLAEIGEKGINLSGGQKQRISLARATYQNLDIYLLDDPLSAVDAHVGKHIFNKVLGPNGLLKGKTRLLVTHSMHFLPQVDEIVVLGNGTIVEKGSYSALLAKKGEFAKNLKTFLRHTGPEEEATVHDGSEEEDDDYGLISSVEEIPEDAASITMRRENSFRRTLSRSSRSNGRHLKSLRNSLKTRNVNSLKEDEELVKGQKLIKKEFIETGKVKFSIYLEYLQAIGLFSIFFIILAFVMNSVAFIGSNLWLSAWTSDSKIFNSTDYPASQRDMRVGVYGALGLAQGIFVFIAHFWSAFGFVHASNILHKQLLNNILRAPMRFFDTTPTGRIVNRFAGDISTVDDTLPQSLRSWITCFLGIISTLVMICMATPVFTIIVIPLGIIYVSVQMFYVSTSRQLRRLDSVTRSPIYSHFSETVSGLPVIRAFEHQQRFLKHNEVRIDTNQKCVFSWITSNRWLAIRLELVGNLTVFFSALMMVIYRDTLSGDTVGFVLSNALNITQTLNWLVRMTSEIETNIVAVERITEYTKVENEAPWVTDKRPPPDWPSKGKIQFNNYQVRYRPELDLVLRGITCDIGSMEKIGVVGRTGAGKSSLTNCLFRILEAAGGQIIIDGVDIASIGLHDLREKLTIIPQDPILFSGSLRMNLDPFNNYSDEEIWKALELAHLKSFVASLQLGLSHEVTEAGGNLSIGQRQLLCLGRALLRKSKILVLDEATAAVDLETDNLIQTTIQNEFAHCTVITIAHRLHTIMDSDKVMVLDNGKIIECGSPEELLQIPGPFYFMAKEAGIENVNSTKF

Question: What does the source list for `COc1ccc2c(c1OC)C(=O)O[C@@H]2[C@H]1c2cc3c(cc2CCN1C)OCO3` [(−)-β-Hydrastine, (1R,9S)-(−)-β-Hydrastine]?
Answer: inhibition at the highest concentration tested (MRP3; MRP3, alkaloids screened at 10 and 100 μM): -- (inhibition not observed); pIC50 (OCT2; OCT2, isolated alkaloids, mean [95% CI], three technical replicates): 4.05; pIC50 (BCRP; BCRP, isolated alkaloids, mean [95% CI], three technical replicates): 4.06; inhibition at the highest concentration tested (MRP2; MRP2, alkaloids screened at 10 and 100 μM): -- (inhibition not observed); pIC50 (OCT1; OCT1, isolated alkaloids, mean [95% CI], three technical replicates): 5.18; pIC50 (OAT3; OAT3, isolated alkaloids, mean [95% CI], three technical replicates): 3.69

Question: How did the inhibition at 100 μM (MRP3) turn out when `COc1ccc2cc3[n+](cc2c1OC)CCc1cc2c(cc1-3)OCO2` [Berberine, berberine chloride] was run?
Answer: < 20%

Question: What about the pIC50 (OCT2) of the same molecule?
Answer: 4.35

Question: And the pIC50 (BCRP)?
Answer: 3.74

Question: And the inhibition at 100 μM (MRP2)?
Answer: < 20%

Question: What about the pIC50 (OCT1) of the same molecule?
Answer: 4.72

Question: And the pIC50 (OAT3)?
Answer: 4.10

Question: For `CN1CCc2cc3c(cc2C1O)OCO3` (centres unmarked) [Hydrastinine, hydrastinine chloride monohydrate], which inhibition at 100 μM (MRP3) is on record?
Answer: < 20%

Question: And the pIC50 (OCT2)?
Answer: 4.02

Question: And the inhibition at 100 μM (BCRP)?
Answer: < 20%

Question: And the inhibition at 100 μM (MRP2)?
Answer: < 20%

Question: And the inhibition at 100 μM (OAT3; cell line (HEK293 or MDCKII) stably expressing OAT3)?
Answer: < 20%

Source: article PMC8058163 (Clinical pharmacology and therapeutics, 2020)
